{"source": "patent US11135163B2", "about": "“Peptide hydrogel properties and its applications” (Kansas State University Research Foundation, priority 2014, dated 2021)", "key": {"HeLa cells": {"system": "HeLa cells", "experiment": "HeLa cell viability (CCK-8) in 3D h9e hydrogel", "format": "cell-based", "conditions": "same amount of camptothecin", "procedure": "Cell culture and drug efficacy/diffusion tests: HeLa cells were grown in the hydrogel in 3D. Aliquots of HeLa cells solution were added into […] hydrogel with DMEM containing 10% FBS with a final peptide concentration of 0, 0.25, 0.5 and 1 wt %. 100 μl of cell mixture solution (3×10^4 cells per well) was seeded into a 96-well culture plate (Becton Dickinson Labware, Franklin Lakes, N.J.) and placed in an incubator (Nuair, Playmouth, Minn.) in a humidified 5% CO2 atmosphere at 37° C. for about 30 min. After complete hydrogelation, 10 μl of DMEM containing 0, 50 uM, 100 uM, or 200 uM camptothecin was added on top of the hydrogel to obtain camptothecin concentrations of 0 μM, 3.125 μM, 6.25 μM, and 12.5 μM, respectively, upon total diffusion in the hydrogel. Then, 50 ul of DMEM was carefully added to the top of the hydrogel to prevent drying during long-term incubation. All measurements were made at least in triplicate, and the plates were incubated for 3 days. A CCK-8 assay was used to determine cell viability after each treatment. 10 μL of CCK solution was added to each well. After 4 h of incubation, the absorbance at 450 nm was collected on a microplate reader (mQuant, Bio-Tek) and corrected by subtracting the background signal from a wall containing only 160 ul DMEM containing 10% FBS. […]"}, "Male Wistar rats": {"system": "Male Wistar rats", "experiment": "In vivo hemostatic efficiency, cut rat tail model", "conditions": "all percent concentrations of h9e peptide solution", "excerpt": "Similar to the method used by Mortazavi et al., in this study 30 rats were divided randomly into 5 groups of 6 animals each. […] Male Wistar rats were kept on AIN-93 diet with free access to water, under 12-h light-dark cycles, for one week. Before excising the tail, the rats were first anesthetized and maintained with 3% isoflurane until the eyelid closure reflex was lost and there was no reactive reflex in response to a toe pinch. In order to maintain an appropriate body temperature during anesthesia, a circulating water blanket was used at a temperature of 41-43° C. Following anesthesia, animals' tails were cut off at a thickness of 5 mm using a pair of mortuary scissors. The cut tail was immediately inserted into a small vial containing the appropriate treatment. The 1st group received topical saline solution (negative control) and the 2nd to 4th groups received topical h9e peptide solution at 1, 3, or 5 wt %, respectively. The 5th group received a topical application of a commercially available hemostatic agent as a positive control (Moore Medical CELOX* Hemostatic Granules). After treatment with above mentioned agents, the volume of blood lost was measured using a scaled test-tube. The bleeding time was measured using a stop watch. At the conclusion of the study, the rats were sacrificed using a CO2 chamber."}, "[1]": {"experiment": "Rheology of h9e/HSA hydrogel formation", "format": "physicochemical", "procedure": "For albumin triggered hydrogel formation, 10 mM (1.74 wt %) peptide was first dissolved in 100 mM NaHCO3 solution. BSA and HSA were dissolved in water with 5 wt % concentration. The peptide solution and albumin solution were then mixed at different ratios for final mixtures of 1, 2, 3 mM h9e peptide with albumin from 0.1 to 5 wt %.\nThe storage (G′) and loss (G″) moduli of h9e hydrogels with different peptide/albumin ratios were measured on a rheometer system C-VOR 150 (Malvern instruments, Malvern, Worcestershire WR141XZ, United Kingdom) with a 20 mm diameter parallel plate test system. All rheological tests were carried out at 37° C. To determine the hydrogel forming rate, the peptide and albumin mixture was placed on the measuring system immediately after preparation and tested by a single frequency (1 Hz) method with steady shear strain (1%) for 1 hour"}, "[2]": {"experiment": "Hydrogelation and dynamic rheology of h9e in MEM", "format": "physicochemical", "conditions": "for stable storage modulus: 37° C.", "procedure": "Lyophilized peptide was added to 100 mM sodium bicarbonate and completely dissolved by magnetic stirring for 3 hours with a final peptide concentration of 10 mM. For hydrogelation, peptide solution was added into MEM with 10% FBS and the mixture was hand-shaken for about 10 seconds. The peptide hydrogel formed within 15 minutes at room temperature with final peptide concentrations of 1, 2, and 3 mM. The storage and loss moduli (G′ and G″, respectively) of h9e hydrogels were determined on a C-VOR 150 rheometer system (Malvern instruments, Malvern, Worcestershire WR141XZ, United Kingdom) with a 20-mm diameter parallel plate geometry and 500 μm gap size. To mimic cell physiological conditions, all rheological tests were performed at 37° C. unless otherwise specified. The peptide and MEM mixture was placed on the measuring system immediately after mixing for a gel-forming rate test. Single frequency (1 Hz) and steady shear strain (1%) were selected for a 1 hour test. To determine the hydrogel reassembly capability, the peptide and MEM mixture was incubated at room temperature overnight for hydrogelation, then transferred to a lower measuring plate for a 10 minute, single-frequency test (1 Hz, 1% strain) for stabilization. The hydrogel was broken using 1 Hz frequency and 500% shear strain for 1 minute. Resetting the instrument parameters took 1 minute, and the hydrogel moduli during the reassembly period were measured under 1 Hz frequency and 1% shear strain for 1 hour. The amplitude sweep test (strain from 1 to 500%, 1 Hz frequency) was conducted multiple times to determine hydrogel reassembly capability after each time it was destroyed. Four testing cycles were applied in this measurement and the hydrogel recovery time between every two cycles was 1, 5, and 10 minutes. Furthermore, to test the response to different environmental temperatures, the peptide hydrogel was measured under a temperature profile test with steady oscillatory frequency (1 Hz) and strain (1%). The temperature was adjusted from 4° C. to 50° C. for two testing cycles. For each cycle, the instrument's heating or cooling processes took 5 minutes, then another 5 minutes to arrive at the setting temperature (4° C. or 50° C.). To determine the G′ and G″ of hydrogel during cell isolation, 3 mM peptide hydrogel was diluted 15 times with MEM. After thorough mixing, the diluted solution was tested under 1 Hz frequency and 1% shear strain at 4° C. for 1 hour."}}, "data": [{"substance": "H-FLIVIGSIIGPGGDGPGGD-NH2 [h9e, FLIVIGSIIGPGGDGPGGD]", "values": [{"measurement": "HeLa cell viability across h9e hydrogel concentrations", "setting": "HeLa cells", "value": "cell viability was comparable"}, {"measurement": "control of hemorrhage versus sterile saline negative control", "setting": "Male Wistar rats", "value": "effective in controlling hemorrhage"}, {"measurement": "hydrogel formation", "setting": "[1]; 3 mM h9e peptide mixed with 5 wt % HSA", "value": "hydrogel was formed"}, {"measurement": "hydrogel formation", "setting": "[1]; peptide concentration 1 mM or HSA concentration 0.5 wt %", "value": "Hydrogel did not form"}, {"measurement": "stable storage modulus", "setting": "[2]; 1 mM h9e in MEM", "value": "around 100 Pa"}, {"measurement": "gel strength recovered", "setting": "[2]; 1 mM hydrogel, waiting time 1 min", "value": "about 73%"}, {"measurement": "gel strength recovered", "setting": "[2]; 1 mM, after three shear-thinning cycles and 10 min waiting", "value": 83, "unit": "%"}, {"measurement": "stable storage modulus", "setting": "[2]; 2 mM h9e in MEM", "value": "~400", "unit": "Pa"}, {"measurement": "gel strength recovered", "setting": "[2]; 2 mM hydrogel, waiting time 1 min", "value": "~76", "unit": "%"}, {"measurement": "gel strength recovered", "setting": "[2]; 2 mM, after three shear-thinning cycles and 10 min waiting", "value": 84, "unit": "%"}, {"measurement": "stable storage modulus", "setting": "[2]; 3 mM h9e in MEM", "value": "~700", "unit": "Pa"}, {"measurement": "gel strength recovered", "setting": "[2]; 3 mM hydrogel, waiting time 1 min", "value": "~88", "unit": "%"}, {"measurement": "gel strength recovered", "setting": "[2]; 3 mM, after three shear-thinning cycles and 10 min waiting", "value": 100, "unit": "%"}, {"measurement": "time to reach self-supporting strength (close or above 100 Pa)", "setting": "[2]; 1, 2 and 3 mM h9e in MEM", "value": "≤ 15", "unit": "min"}, {"measurement": "G′ after shear-thinning", "setting": "[2]; 1-3 mM hydrogels, 500% strain for 1 minute", "value": "lower than 0.2 Pa"}, {"measurement": "time to self-supporting hydrogel matrix", "setting": "[2]; h9e solution added into MEM with 10% serum", "value": "≤ 1", "unit": "min"}, {"measurement": "G′ at 50° C. relative to 4° C.", "setting": "[2]; temperature profile test, 1-3 mM hydrogels", "value": "2-3 times"}]}]}
